# Results from patent US20100298141A1, “SUBSTITUTED PYRIDINE N-OXIDE HERBICIDES” (E. I. DU PONT DE NEMOURS AND COMPANY, priority 2007, published 2010).
# What was measured:
# Test in all cases: Test F preemergence test
# green foxtail = assay type: in vivo, Setaria viridis; conditions: scale 0 to 100
# In short: (§1)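 Preemergence application to planted seeds, or postemergence to sugarcane plants; compound in non-phytotoxic solvent mix plus surfactant. Greenhouse, 14-21 days. Visual rating vs. controls.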
# johnsongrass = assay type: in vivo, Sorghum halepense; conditions: scale 0 to 100
# In short: as §1
# pitted morningglory = assay type: in vivo, Ipomoea lacunosa; conditions: scale 0 to 100
# In short: as §1
# guineagrass = assay type: in vivo, Panicum maximum; conditions: scale 0 to 100
# In short: as §1
# dallisgrass = assay type: in vivo, Paspalum dilatatum; conditions: scale 0 to 100
# In short: as §1
# common sowthistle = assay type: in vivo, Sonchus oleraceous; conditions: scale 0 to 100; for Sowthistle plant response rating: 125 g ai/ha
# In short: as §1
# prickly sida = assay type: in vivo, Sida spinosa; conditions: scale 0 to 100
# In short: as §1
# common purslane = assay type: in vivo, Portulaca oleracea; conditions: scale 0 to 100
# In short: as §1
# common groundsel = assay type: in vivo, Senecio vulgaris; conditions: scale 0 to 100
# In short: as §1
# Virginia dayflower = assay type: in vivo, Commelina virginica; conditions: scale 0 to 100
# In short: as §1
# annual bluegrass = assay type: in vivo, Poa annua; conditions: scale 0 to 100
# In short: as §1
# naked crabgrass = assay type: in vivo, Digitaria nuda; conditions: scale 0 to 100
# In short: as §1
# itchgrass = assay type: in vivo, Rottboellia cochinchinensis; conditions: scale 0 to 100
# In short: as §1
# Canada horseweed = assay type: in vivo, Conyza canadensis; conditions: scale 0 to 100
# In short: as §1
# field bindweed = assay type: in vivo, Convolvulus arvensis; conditions: scale 0 to 100
# In short: as §1
# spanishneedles = assay type: in vivo, Bidens bipinnata; conditions: scale 0 to 100; for Spanishneedles plant response rating: 125 g ai/ha
# In short: as §1
# common mallow = assay type: in vivo, Malva sylvestris; conditions: scale 0 to 100
# In short: as §1
smiles,measurement,setting,value
CCn1nc(C(F)(F)F)c(C[S+]([O-])c2cc(C)cc[n+]2[O-])c1OCC(F)(F)F (racemic) [Compound 66],"Plant response rating, Foxtail, Green","green foxtail; 16 g ai/ha, preemergence",10
same,"Foxtail, Green plant response rating","green foxtail; 62 g ai/ha, Preemergence",90
same,"Foxtail, Green plant response rating","green foxtail; 125 g ai/ha, preemergence",100
same,"Plant response rating, Foxtail, Green","green foxtail; Preemergence, 31 g ai/ha",60
same,"Plant response rating, Johnsongrass","johnsongrass; 16 g ai/ha, preemergence",35
same,Johnsongrass plant response rating,"johnsongrass; 62 g ai/ha, Preemergence",90
same,Johnsongrass plant response rating,"johnsongrass; 125 g ai/ha, preemergence",100
same,"Plant response rating, Johnsongrass","johnsongrass; Preemergence, 31 g ai/ha",65
same,"Plant response rating, Morningglory","pitted morningglory; 16 g ai/ha, preemergence",0
same,Morningglory plant response rating,"pitted morningglory; 62 g ai/ha, Preemergence",80
same,Morningglory plant response rating,"pitted morningglory; 125 g ai/ha, preemergence",100
same,"Plant response rating, Morningglory","pitted morningglory; Preemergence, 31 g ai/ha",65
same,"Plant response rating, Guineagrass","guineagrass; 16 g ai/ha, preemergence",20
same,Guineagrass plant response rating,"guineagrass; 62 g ai/ha, Preemergence",100
same,Guineagrass plant response rating,"guineagrass; 125 g ai/ha, preemergence",100
same,"Plant response rating, Guineagrass","guineagrass; Preemergence, 31 g ai/ha",80
same,"Plant response rating, Dallisgrass","dallisgrass; 16 g ai/ha, preemergence",0
same,Dallisgrass plant response rating,"dallisgrass; 62 g ai/ha, Preemergence",95
same,Dallisgrass plant response rating,"dallisgrass; 125 g ai/ha, preemergence",100
same,"Plant response rating, Dallisgrass","dallisgrass; Preemergence, 31 g ai/ha",65
same,"Plant response rating, Sowthistle","common sowthistle; 16 g ai/ha, preemergence",0
same,Sowthistle plant response rating,common sowthistle; preemergence,100
same,"Plant response rating, Sowthistle","common sowthistle; Preemergence, 62 g ai/ha",100
same,"Plant response rating, Sowthistle","common sowthistle; Preemergence, 31 g ai/ha",0
same,"Plant response rating, Prickly Sida","prickly sida; 16 g ai/ha, preemergence",20
same,Prickly Sida plant response rating,"prickly sida; 62 g ai/ha, Preemergence",75
same,Prickly Sida plant response rating,"prickly sida; 125 g ai/ha, preemergence",98
same,"Plant response rating, Prickly Sida","prickly sida; Preemergence, 31 g ai/ha",20
same,"Plant response rating, Purslane","common purslane; 16 g ai/ha, preemergence",0
same,Purslane plant response rating,"common purslane; 62 g ai/ha, Preemergence",50
same,Purslane plant response rating,"common purslane; 125 g ai/ha, preemergence",60
same,"Plant response rating, Purslane","common purslane; Preemergence, 31 g ai/ha",0
same,Groundsel plant response rating,"common groundsel; 62 g ai/ha, Preemergence",80
same,Groundsel plant response rating,"common groundsel; 125 g ai/ha, preemergence",100
same,"Plant response rating, Groundsel","common groundsel; Preemergence, 31 g ai/ha",20
same,"Plant response rating, Dayflower","Virginia dayflower; 16 g ai/ha, preemergence",0
same,"Plant response rating, Dayflower","Virginia dayflower; Preemergence, 31 g ai/ha",0
same,"Plant response rating, Bluegrass","annual bluegrass; 16 g ai/ha, preemergence",0
same,Bluegrass plant response rating,"annual bluegrass; 62 g ai/ha, Preemergence",70
same,Bluegrass plant response rating,"annual bluegrass; 125 g ai/ha, preemergence",80
same,"Plant response rating, Bluegrass","annual bluegrass; Preemergence, 31 g ai/ha",20
same,"Plant response rating, Crabgrass, Naked","naked crabgrass; 16 g ai/ha, preemergence",0
same,"Crabgrass, Naked plant response rating","naked crabgrass; 62 g ai/ha, Preemergence",100
same,"Crabgrass, Naked plant response rating","naked crabgrass; 125 g ai/ha, preemergence",100
same,"Plant response rating, Crabgrass, Naked","naked crabgrass; Preemergence, 31 g ai/ha",25
same,"Plant response rating, Itchgrass","itchgrass; 16 g ai/ha, preemergence",0
same,Itchgrass plant response rating,"itchgrass; 62 g ai/ha, Preemergence",70
same,Itchgrass plant response rating,"itchgrass; 125 g ai/ha, preemergence",90
same,"Plant response rating, Itchgrass","itchgrass; Preemergence, 31 g ai/ha",50
same,"Plant response rating, Horseweed","Canada horseweed; 16 g ai/ha, preemergence",50
same,Horseweed plant response rating,"Canada horseweed; 62 g ai/ha, Preemergence",90
same,Horseweed plant response rating,"Canada horseweed; 125 g ai/ha, preemergence",100
same,"Plant response rating, Horseweed","Canada horseweed; Preemergence, 31 g ai/ha",50
same,"Plant response rating, Field Bindweed","field bindweed; 16 g ai/ha, preemergence",30
same,Field Bindweed plant response rating,"field bindweed; 62 g ai/ha, Preemergence",40
same,Field Bindweed plant response rating,"field bindweed; 125 g ai/ha, preemergence",75
same,"Plant response rating, Field Bindweed","field bindweed; Preemergence, 31 g ai/ha",40
same,"Plant response rating, Spanishneedles","spanishneedles; 16 g ai/ha, preemergence",15
same,Spanishneedles plant response rating,spanishneedles; preemergence,100
same,"Plant response rating, Spanishneedles","spanishneedles; Preemergence, 62 g ai/ha",80
same,"Plant response rating, Spanishneedles","spanishneedles; Preemergence, 31 g ai/ha",65
same,"Plant response rating, Mallow","common mallow; 16 g ai/ha, preemergence",0
same,Mallow plant response rating,"common mallow; 62 g ai/ha, Preemergence",80
same,Mallow plant response rating,"common mallow; 125 g ai/ha, preemergence",100
same,"Plant response rating, Mallow","common mallow; Preemergence, 31 g ai/ha",70
Cn1nc(C(F)(F)F)c(C[S+]([O-])c2ccc(Cl)c[n+]2[O-])c1OCC(F)F (stereo not drawn) [Compound 85],"Plant response rating, Foxtail, Green","green foxtail; 16 g ai/ha, preemergence",35
same,"Foxtail, Green plant response rating","green foxtail; 125 g ai/ha, preemergence",95
same,"Plant response rating, Foxtail, Green","green foxtail; Preemergence, 62 g ai/ha",90
same,"Plant response rating, Foxtail, Green","green foxtail; Preemergence, 31 g ai/ha",70
same,"Plant response rating, Johnsongrass","johnsongrass; 16 g ai/ha, preemergence",40
same,Johnsongrass plant response rating,"johnsongrass; 125 g ai/ha, preemergence",98
same,"Plant response rating, Johnsongrass","johnsongrass; Preemergence, 62 g ai/ha",90
same,"Plant response rating, Johnsongrass","johnsongrass; Preemergence, 31 g ai/ha",75
same,"Plant response rating, Morningglory","pitted morningglory; 16 g ai/ha, preemergence",0
same,"Plant response rating, Guineagrass","guineagrass; 16 g ai/ha, preemergence",50
same,Guineagrass plant response rating,"guineagrass; 125 g ai/ha, preemergence",100
same,"Plant response rating, Guineagrass","guineagrass; Preemergence, 62 g ai/ha",98
same,"Plant response rating, Guineagrass","guineagrass; Preemergence, 31 g ai/ha",98
same,"Plant response rating, Dallisgrass","dallisgrass; 16 g ai/ha, preemergence",15
same,Dallisgrass plant response rating,"dallisgrass; 125 g ai/ha, preemergence",98
same,"Plant response rating, Dallisgrass","dallisgrass; Preemergence, 62 g ai/ha",85
same,"Plant response rating, Dallisgrass","dallisgrass; Preemergence, 31 g ai/ha",75
same,"Plant response rating, Sowthistle","common sowthistle; 16 g ai/ha, preemergence",0
same,Sowthistle plant response rating,common sowthistle; preemergence,100
same,"Plant response rating, Sowthistle","common sowthistle; Preemergence, 62 g ai/ha",100
same,"Plant response rating, Sowthistle","common sowthistle; Preemergence, 31 g ai/ha",0
same,"Plant response rating, Prickly Sida","prickly sida; 16 g ai/ha, preemergence",0
same,Prickly Sida plant response rating,"prickly sida; 125 g ai/ha, preemergence",60
same,"Plant response rating, Prickly Sida","prickly sida; Preemergence, 62 g ai/ha",40
same,"Plant response rating, Prickly Sida","prickly sida; Preemergence, 31 g ai/ha",20
same,"Plant response rating, Purslane","common purslane; 16 g ai/ha, preemergence",0
same,Purslane plant response rating,"common purslane; 125 g ai/ha, preemergence",60
same,"Plant response rating, Purslane","common purslane; Preemergence, 62 g ai/ha",60
same,"Plant response rating, Purslane","common purslane; Preemergence, 31 g ai/ha",25
same,"Plant response rating, Groundsel","common groundsel; 16 g ai/ha, preemergence",0
same,Groundsel plant response rating,"common groundsel; 125 g ai/ha, preemergence",65
same,"Plant response rating, Groundsel","common groundsel; Preemergence, 62 g ai/ha",0
same,"Plant response rating, Groundsel","common groundsel; Preemergence, 31 g ai/ha",0
same,"Plant response rating, Bluegrass","annual bluegrass; 16 g ai/ha, preemergence",75
same,Bluegrass plant response rating,"annual bluegrass; 125 g ai/ha, preemergence",100
same,"Plant response rating, Bluegrass","annual bluegrass; Preemergence, 62 g ai/ha",95
same,"Plant response rating, Bluegrass","annual bluegrass; Preemergence, 31 g ai/ha",95
same,"Plant response rating, Crabgrass, Naked","naked crabgrass; 16 g ai/ha, preemergence",75
same,"Crabgrass, Naked plant response rating","naked crabgrass; 125 g ai/ha, preemergence",95
same,"Plant response rating, Crabgrass, Naked","naked crabgrass; Preemergence, 62 g ai/ha",90
same,"Plant response rating, Crabgrass, Naked","naked crabgrass; Preemergence, 31 g ai/ha",80
same,"Plant response rating, Itchgrass","itchgrass; 16 g ai/ha, preemergence",25
same,Itchgrass plant response rating,"itchgrass; 125 g ai/ha, preemergence",90
same,"Plant response rating, Itchgrass","itchgrass; Preemergence, 62 g ai/ha",70
same,"Plant response rating, Itchgrass","itchgrass; Preemergence, 31 g ai/ha",70
same,"Plant response rating, Horseweed","Canada horseweed; 16 g ai/ha, preemergence",25
same,Horseweed plant response rating,"Canada horseweed; 125 g ai/ha, preemergence",100
same,"Plant response rating, Horseweed","Canada horseweed; Preemergence, 62 g ai/ha",100
same,"Plant response rating, Horseweed","Canada horseweed; Preemergence, 31 g ai/ha",100
same,"Plant response rating, Field Bindweed","field bindweed; 16 g ai/ha, preemergence",0
same,Field Bindweed plant response rating,"field bindweed; 125 g ai/ha, preemergence",35
same,"Plant response rating, Field Bindweed","field bindweed; Preemergence, 62 g ai/ha",20
same,"Plant response rating, Field Bindweed","field bindweed; Preemergence, 31 g ai/ha",0
same,"Plant response rating, Spanishneedles","spanishneedles; 16 g ai/ha, preemergence",50
same,Spanishneedles plant response rating,spanishneedles; preemergence,100
same,"Plant response rating, Spanishneedles","spanishneedles; Preemergence, 62 g ai/ha",100
same,"Plant response rating, Spanishneedles","spanishneedles; Preemergence, 31 g ai/ha",50
same,"Plant response rating, Mallow","common mallow; 16 g ai/ha, preemergence",0
same,Mallow plant response rating,"common mallow; 125 g ai/ha, preemergence",98
same,"Plant response rating, Mallow","common mallow; Preemergence, 62 g ai/ha",98
same,"Plant response rating, Mallow","common mallow; Preemergence, 31 g ai/ha",50
